Drawing on patent US9573961B2, “Inhibitors of the renal outer medullary potassium channel” (Merck Sharp & Dohme Corp., priority 2012, dated 2017), this text covers IC50 for 19 molecules.

The IC50 is the concentration at which inhibition is half-maximal.

Assay [1] concerns the target hROMK (hKir1.1) (Homo sapiens (Human), UniProt P48048). The experiment in a line: Thallium Flux Assay (ROMK channel functional thallium flux, FLIPR-Tetra). Type of assay: cell-based. How it is done: Cell Culture Conditions—HEK293 cells stably expressing hROMK (hKir1.1) were grown at 37° C. in a 10% CO2 humidified incubator in complete growth media: Dulbecco's Modified Eagle Medium supplemented with non-essential amino acids, Penicillin/Streptomycin/Glutamine, G418 and FBS. At >80% confluency, aspirate the media from the flask and rinse with 10 mL Calcium/Magnesium-free PBS. […] To dislodge the cell, gently bang the side of the flask with your hand. Triturate the cells completely and then transfer the cells to 25 mL complete media. Centrifuge at 1,500 rpm for 6 min followed by resuspension in complete growth media and determine cell concentration. […] Under ideal growth conditions and appropriate tissue culture practices, this cell line is stable for 40-45 passages.
FluxOR Kit Components (Invitrogen F10017) • FluxOR™ Reagent (Component A) • FluxOR™ Assay Buffer (Component B)—10× Concentrate • PowerLoad™ Concentrate (Component C)—100× Concentrate • Probenecid (Component D)—Lyophilized sample is kept at −20° C. Water soluble, 100× after solubilization in 1 mL water. […] Store at 4° C. • Thallium sulfate (Tl2SO4) Concentrate (Component G)—50 mM in water. Store at 4° C. • DMSO (dimethyl sulfoxide, Component H)—1 mL (100%)
Can be stored at room temperature • Stimulant Buffer (prepared at 5× final concentration in 1× FluxOR™ Chloride-Free Buffer): 7.5 mM Thallium sulfate and 0.75 mM Potassium sulfate (to give a final assay concentration of 3 mM Thallium/0.3 mM Potassium). Store at 4° C. when not in use. If kept sterile, this solution is good for months.
Assay Protocol—The ROMK channel functional thallium flux assay is performed in 384 wells, using the FLIPR-Tetra instrument. HEK-hKir1.1 cells are seeded in Poly-D-Lysine microplates and kept in a 37° C.-10% CO2 incubator overnight. On the day of the experiment, the growth media is replaced with the FluxOR™ reagent loading buffer and incubated, protected from light, at ambient temperature (23-25° C.) for 90 min. The loading buffer is replaced with assay buffer±test compound followed by 30 min incubation at ambient temperature, where the Thallium/Potassium stimulant is added to the microplate.
Step Protocol • 1. Seed HEK-hKir1.1 cells (50 μl at 20,000 cells/well) in 384-well PDL coated Microplates • 2. Allow cells to adhere overnight in humidified 37° C./10% CO2 incubator • 3. Completely remove cell growth media from microplate and replace with 25 μl loading buffer • 4. Incubate Microplate at room temperature, protected form light, for 90 min • 5. Remove loading buffer and replace with 25 μl 1× Assay Buffer±test compound. • 6. Incubate microplate at room temperature, protected from light, for 30 min • 7. […] Excitation=400 nm, Emission=460 & 580 nm. Collect data for ˜10 min.
Data Calculation—The fluorescence intensity of wells containing 3 μM of a standard control ROMK inhibitor of the present invention is used to define the ROMK-sensitive component of thallium flux. Fluorescence in the presence of test compounds is normalized to control values to provide % fluorescence change.

The target in assay [2] is Kir1.1 (ROMK1) (Homo sapiens (Human), UniProt P48048). The experiment in a line: Electrophysiology Assay (whole cell voltage clamp, IonWorks Quattro). The assay is classed as cell-based. The note with it: block during voltage step to 0 mV. How it is done: Chinese hamster ovary cells stably expressing Kir1.1 channels were maintained in T-75 flasks in cell culture media in a humidified 10% CO2 incubator at 37° C. Prior to an experiment, Kir1.1 expression was induced by overnight incubation with 1 mM sodium butyrate. […] After centrifugation, the cell pellet was resuspended in approximately 4.0 mL of bath solution and placed in the IonWorks instrument. The intracellular solution consisted of (in mM): 80 K gluconate, 40 KCl, 20 KF, 3.2 MgCl2, 3 EGTA, 5 Hepes, pH 7.4. Electrical access to the cytoplasm was achieved by perforation in 0.13 mg/mL amphotericin B for 4 min. […] Voltage protocols and current recordings were performed using the IonWorks HT software/hardware system. Currents were sampled at 1 kHz. No correction for liquid junction potentials was used. The test pulse, consisting of a 100 ms step to 0 mV from a holding potential of −70 mV, followed by a 100 ms voltage ramp from −70 mV to +70 mV, was applied before and after a 6 min compound incubation period. Test compounds were prepared by diluting DMSO stock solutions into the bath solution at 3× the final concentration and placed in the instrument in 96-well polypropylene plates. Current amplitudes were measured using the IonWorks software.
Sequence of Kir1.1 (ROMK1) (P48048 whole entry): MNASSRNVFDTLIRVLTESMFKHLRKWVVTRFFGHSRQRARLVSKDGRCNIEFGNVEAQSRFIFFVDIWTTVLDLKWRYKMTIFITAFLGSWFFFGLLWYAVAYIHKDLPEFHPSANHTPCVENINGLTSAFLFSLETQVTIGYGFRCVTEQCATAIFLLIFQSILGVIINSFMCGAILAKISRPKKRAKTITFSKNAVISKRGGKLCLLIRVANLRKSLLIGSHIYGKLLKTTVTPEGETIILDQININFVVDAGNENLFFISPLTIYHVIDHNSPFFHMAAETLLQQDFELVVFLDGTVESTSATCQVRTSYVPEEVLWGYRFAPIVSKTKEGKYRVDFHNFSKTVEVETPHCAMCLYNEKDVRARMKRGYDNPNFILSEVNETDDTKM

Setting [3] is: Electrophysiology IC50, Chinese hamster ovary cells stably expressing Kir1.1.
The mark [4] stands for this setting: HEK293 cells stably expressing hROMK (hKir1.1), read-out: Thallium Flux IC50.
[5] abbreviates: Chinese hamster ovary cells stably expressing Kir1.1, read-out: Electrophysiology IC50.

Where two headings read alike, the source gives them in different places.

Sequence of hROMK (hKir1.1) (P48048 whole entry): as above

As to `Cc1c([C@@H]2CN3CCN(C(=O)Cc4cc(F)c(-n5cnnn5)cc4F)C[C@@H]3CO2)ccc(F)c1C#N` [Example 54, 3-[(3R,9aR)-8-{[2,5-difluoro-4-(1H-tetrazol-1-yl)phenyl]acetyl}octahydropyrazino[2,1-c][1,4]oxazin-3-yl]-6-fluoro-2-methylbenzonitrile], the IC50 in assay [1] (read-out: Thallium Flux IC50) and in assay [2] (setting [3]) was 100 nM each time.
Consider `Cc1c(CC(=O)N2CCN3C[C@H](c4ccc(F)c(C#N)c4C)OC[C@H]3C2)cccc1-n1cnnn1` [Example 61, 6-fluoro-2-methyl-3-[(3S,9aR)-8-{[2-methyl-3-(1H-tetrazol-1-yl)phenyl]acetyl}octahydropyrazino[2,1-c][1,4]oxazin-3-yl]benzonitrile], for which the IC50 in assay [1] (setting [4]) amounted to 340 nM; in assay [2] (setting [5]) it was 240 nM.
For `Cc1c([C@@H]2CN3CCN(C(=O)C4CCc5cc(-n6cnnn6)ccc54)C[C@H]3CO2)csc1C#N` (single isomer, unassigned) [Example 82], the IC50 amounted to 330 nM in assay [1] (setting [4]) and 110 nM in assay [2] (setting [5]).
For `Cc1c([C@H]2CN3CCN(C(=O)Cc4cc(-n5cnnn5)ccc4F)C[C@@H]3CO2)ccc(F)c1C#N` [Example 58, 6-fluoro-3-[(3S,9aR)-8-{[2-fluoro-5-(1H-tetrazol-1-yl)phenyl]acetyl}octahydropyrazino[2,1-c][1,4]oxazin-3-yl]-2-methylbenzonitrile], the IC50 in assay [1] (setting [4]) stood at 180 nM; in assay [2] (setting [5]) it was 80 nM.
For `Cc1c([C@H]2CN3CCN(C(=O)Cc4ccc(-n5cnnn5)cc4)C[C@H]3CO2)csc1C#N` [Example 40, 3-methyl-4-[(3S,9aS)-8-{[4-(1H-tetrazol-1-yl)phenyl]acetyl}octahydropyrazino[2,1-c][1,4]oxazin-3-yl]thiophene-2-carbonitrile], the figures for the IC50 in assay [1] (setting [4]) and in assay [2] (setting [3]) were 90 nM and 80 nM, respectively.
Regarding `COc1cc([C@H]2CN3CCN(C(=O)Cc4ccc(-n5cnnn5)cc4)C[C@@H]3CO2)ccc1C#N` [Example 18, 2-methoxy-4-[(3S,9aR)-8-{[4-(1H-tetrazol-1-yl)phenyl]acetyl}octahydropyrazino[2,1-c][1,4]oxazin-3-yl]benzonitrile], the half-maximal inhibitory concentration (IC50) in assay [1] (setting [4]) was found to be 250 nM; in assay [2] (setting [3]) it was 110 nM.
Turning to `O=C(C1CCc2cc(-n3cnnn3)ccc21)N1CCN2C[C@@H](c3cccc(-n4cnnn4)c3)OC[C@@H]2C1` (single isomer, unassigned) [Example 80], the IC50 came out at 130 nM in assay [1] (setting [4]) and 280 nM in assay [2] (setting [5]).
`C[C@@H]1Cc2cc([C@@H]3CN4CCN(C(=O)Cc5ccc(-n6cnnn6)cc5)C[C@H]4CN3)ccc2C(=O)O1` [Example 104]: the IC50 in assay [1] (setting [4]) was 290 nM; in assay [2] (setting [3]), 380 nM.
Consider `Cc1c([C@@H]2CN3CCN(C(=O)Cc4ccc(-n5cnnn5)cc4)C[C@H]3CN2)ccc(F)c1C#N` [Example 99, 3-((3R,9aR)-8-(2-(4-(1H-tetrazol-1-yl)phenyl)acetyl)octahydro-1H-pyrazino[1,2-a]pyrazin-3-yl)-6-fluoro-2-methylbenzonitrile], for which the IC50 in assay [1] (setting [4]) was 70 nM; in assay [2] (setting [5]), 180 nM.
On to `Cc1c([C@@H]2CN3CCN(C(=O)C(C)c4ccc(-n5cnnn5)cc4)C[C@H]3CO2)ccc(F)c1C#N` (stereo partly drawn) [Example 45, 6-fluoro-2-methyl-3-[(3R,9aS)-8-{2-[4-(1H-tetrazol-1-yl)phenyl]propanoyl}octahydropyrazino[2,1-c][1,4]oxazin-3-yl]benzonitrile], for which the IC50 in assay [1] (setting [4]) came to 330 nM; in assay [2] (setting [5]), 210 nM.
`Cc1c([C@@H]2CN3CCN(C(=O)Cc4ccc(-n5cnnn5)cc4Cl)C[C@H]3CO2)ccc(F)c1C#N` [Example 70, 3-[(3R,9aS)-8-{[2-chloro-4-(1H-tetrazol-1-yl)phenyl]acetyl}octahydropyrazino[2,1-c][1,4]oxazin-3-yl]-6-fluoro-2-methylbenzonitrile]: the IC50 in assay [1] (setting [4]) was 250 nM; in assay [2] (setting [3]) it was 160 nM.
As to `O=C(C1CCc2cc(-n3cnnn3)ccc21)N1CCN2C[C@@H](c3ccc4nonc4c3)OC[C@@H]2C1` (stereo partly drawn) [Example 78, (3R,9aS)-3-(2,1,3-benzoxadiazol-5-yl)-8-{[5-(1H-tetrazol-1-yl)-2,3-dihydro-1H-inden-1-yl]carbonyl}octahydropyrazino[2,1-c][1,4]oxazine], the IC50 turned out to be 210 nM in assay [1] (setting [4]) and 100 nM in assay [2] (setting [5]).
Consider `Cc1c([C@@H]2CN3CCN(C(=O)C4CCc5cc(-n6cnnn6)ccc54)C[C@H]3CO2)ccc(F)c1C#N` (mixture of isomers) [Example 2A, 3-((3R,9aS)-8-(5-(1H-tetrazol-1-yl)-2,3-dihydro-1H-indene-1-carbonyl)octahydropyrazino[2,1-c][1,4]oxazin-3-yl)-6-fluoro-2-methylbenzonitrile], for which the IC50 in assay [1] (setting [4]) is 170 nM; in assay [2] (setting [5]) it was 140 nM.
In the case of `Cc1c(CC(=O)N2CCN3C[C@@H](c4ccc(F)c(C#N)c4C)OC[C@H]3C2)cccc1-n1cnnn1` [Example 60, 6-fluoro-2-methyl-3-[(3R,9aR)-8-{[2-methyl-3-(1H-tetrazol-1-yl)phenyl]acetyl}octahydropyrazino[2,1-c][1,4]oxazin-3-yl]benzonitrile], the results for the IC50 in assay [1] (setting [4]) and in assay [2] (setting [5]) were 440 nM and 420 nM, respectively.
For `COc1cc(CC(=O)N2CCN3C[C@H](c4ccc5c(c4)CCOC5=O)OC[C@H]3C2)c(F)cc1C#N` [Example 31, 5-fluoro-2-methoxy-4-{2-oxo-2-[(3S,9aR)-3-(1-oxo-3,4-dihydro-1H-isochromen-6-yl)hexahydropyrazino[2,1-c][1,4]oxazin-8(1H)-yl]ethyl}benzonitrile], the results for the IC50 in assay [1] (setting [4]) and in assay [2] (setting [3]) were 570 nM and 120 nM, respectively.
`Cc1c([C@H]2CN3CCN(C(=O)Cc4cccc(-n5cnnn5)c4)C[C@H]3CO2)ccc(F)c1C#N` [Example 46, 6-fluoro-2-methyl-3-[(3S,9aS)-8-{[3-(1H-tetrazol-1-yl)phenyl]acetyl}octahydropyrazino[2,1-c][1,4]oxazin-3-yl]benzonitrile]: the IC50 came out at 240 nM in assay [1] (setting [4]) and 140 nM in assay [2] (setting [5]).
For `Cc1c([C@@H]2CN3CCN(C(=O)Cc4c(F)cc(-n5cnnn5)cc4F)C[C@H]3CN2)ccc(F)c1C#N` [Example 102], the IC50 was 150 nM in assay [1] (Thallium Flux IC50) and 160 nM in assay [2] (setting [3]).
`Cc1c([C@@H]2CN3CCN(C(=O)Cc4ccc(-n5cnnn5)cc4)C[C@H]3CO2)ccc2c1COC2=O` [Example 1A, 4-methyl-5-[(3R,9aS)-8-{[4-(1H-tetrazol-1-yl)phenyl]acetyl}octahydropyrazino[2,1-c][1,4]oxazin-3-yl]-2-benzofuran-1(3H)-one]: the results for the IC50 in assay [1] (setting [4]) and in assay [2] (setting [3]) were 30 nM and 100 nM, respectively.
Take `Cc1c([C@@H]2CN3CCN(C(=O)Cc4ccc(-n5cnnn5)cc4C#N)C[C@@H]3CO2)ccc(F)c1C#N` [Example 68, 3-[(3R,9aR)-8-{[2-cyano-4-(1H-tetrazol-1-yl)phenyl]acetyl}octahydropyrazino[2,1-c][1,4]oxazin-3-yl]-6-fluoro-2-methylbenzonitrile]: the IC50 turned out to be 210 nM in assay [1] (setting [4]) and 120 nM in assay [2] (setting [3]).
